Results as given in patent US9353089B2, “Compositions and methods for the treatment of malaria” (Saint Louis University, priority 2013, dated 2016).
Like-named read-outs stand apart in the source and are kept apart here.

How the values were obtained:
[1] = test system: Plasmodium falciparum 3D7 (CQ-sensitive); test: In vitro antimalarial assay (malaria SYBR Green I-based fluorescence, MSF), 3D7; assay type: cell-based
In short: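 Asynchronous P. falciparum 3D7 cultures (0.5% parasitemia, 2% hematocrit) were exposed to serially diluted compounds, in quadruplicate. Growth was then quantified by SYBR Green I fluorescence after adding lysis buffer containing 0.2 μL/mL dye.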

[2] = Human Plasma Protein Binding (hPPB) assay; assay type: in vitro ADME; conditions: rapid equilibrium dialysis
Method: Human Plasma Protein Binding (hPPB) of test compounds was measured by rapid equilibrium dialysis device using the RED Device Inserts. In the reaction of 5 h, the drug concentration of the sample chamber and buffer chamber can be determined, through which we can calculated hPPB of test compounds. RED Device Inserts and Single-Use RED Base Plate were purchased from the Linden Bioscience, Woburn, Mass. (Taiwan, Thermo scientific). […]. Pooled human plasma from healthy individuals in this study was obtained from the Southern Medical University (China) and was stored frozen at −20° C. until use. SHZ-88A Reciprocating thermostatic oscillator was purchased from Taicang City Experimental Equipment Co. (China). Chlorpromazine (>99% in purity, positive control) and Phenacetin (>99% in purity, internal standard, IS) were all purchased from the Sigma Chemical Co. (China). Chlorpromazine HCl was used as a positive control. An aliquot ([…]) of plasma was accurately added into the sample chamber, and 6 μL compounds solution (500 μM, 50% DMSO) was added (n=3). An aliquot (500 μL) of Dulbecco solution was added into the buffer chamber. These solution were all oscillated for 5 hours (37° C., 90 rpm). Then, 50 μL solution in sample chamber was removed, 50 μL Dulbecco solution was added, and mixed. Also, 50 μL solution in buffer chamber was removed, 50 μL plasma was added, and mixed. 200 μL ACN (including internal Standard, 100 ng/mL) were added separately, oscillated, mixed, and centrifuged (20 min, 15000 g). An aliquot (50 μL) of the supernatant was accurately transferred to a clean 1.5 mL test tube and 100 μL H2O was added, mixed. 10 μL of mixture was separately injected into LC-MS system for determination of the drug concentration in the sample chamber and buffer chamber. The data were analyzed using the following equation: % hPPB=[1−(Concentrationbuffer chamber/Concentrationplasma chamber)]*100% (Barre, et al., 1985, which is incorporated herein by reference).

[3] = test system: Plasmodium falciparum Dd2 (multi-drug resistant); test: In vitro antimalarial assay (malaria SYBR Green I-based fluorescence, MSF), Dd2; assay type: cell-based
Method: In vitro antimalarial activity was determined by a malaria SYBR Green I-based fluorescence (MSF) method described previously by Smilkstein et al. (2004, which is incorporated herein by reference) with slight modification (Winter, et al., 2006, which is incorporated herein by reference). Stock solutions of each test drug were prepared in DMSO at a concentration of 20 mM. The drug solutions were serially diluted with culture medium and distributed to asynchronous parasite cultures on 96-well plates in quadruplicate in a total volume of 100 μL to achieve 0.5% parasitemia with a 2% hematocrit in a total volume of 100 pt. The plates were then incubated for 72 h at 37° C. After incubation, 100 μL of lysis buffer with 0.2 μL/mL SYBR Green I was added to each well. The plates were incubated at 37° C. for an hour in the dark and then placed in a 96-well fluorescence plate reader (Spectramax Gemini-EM; Molecular Diagnostics) with excitation and emission wavelengths at 497 nm and 520 nm, respectively, for measurement of fluorescence.
Antimalarial potency of compounds was determined by this technique for both Plasmodium falciparum 3D7 (CQ-sensitive) and Dd2 (multi-drug resistant) strains.

[4] = target: Plasmepsin-2 (PM-2; Plm II) (Plasmodium falciparum (isolate HB3), UniProt P46925); test: Plasmepsin-2 enzyme inhibition assay; assay type: biochemical
Plasmepsin-2 (PM-2; Plm II), sequence (P46925 125-453 limits assumed): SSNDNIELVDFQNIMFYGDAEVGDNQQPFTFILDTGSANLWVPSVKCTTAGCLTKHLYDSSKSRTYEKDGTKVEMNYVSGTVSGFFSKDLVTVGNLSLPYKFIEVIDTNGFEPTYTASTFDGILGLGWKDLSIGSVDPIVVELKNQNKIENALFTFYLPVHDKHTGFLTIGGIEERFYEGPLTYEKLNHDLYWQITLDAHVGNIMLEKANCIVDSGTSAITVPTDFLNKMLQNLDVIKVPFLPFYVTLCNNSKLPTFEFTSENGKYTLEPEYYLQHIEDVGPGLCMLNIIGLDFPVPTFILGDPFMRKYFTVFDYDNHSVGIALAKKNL
In short: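 Enzymes activated in pH 4.5 citrate/DTT buffer, then assayed in 50 mM sodium acetate pH 4.7, 0.01% Tween-20. Compounds added before fluorogenic peptide substrate (final 20 µM); 60 min at room temperature, fluorescence Ex/Em 360/535 nm, IC50 by curve fit.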

[5] = 3D7, 48 h, read-out: Pf 3D7 IC50 (μM, 48 hr), 48 hr
[6] = 3D7, 72 h, read-out: Pf 3D7 IC50 (μM, 72 hr), 72 hr
[7] = 3D7, read-out: 3D7 IC50 (μM), Table 13
[8] = 3D7, read-out: Pf3D7 IC50 (μM), Table 10
[9] = 3D7, read-out: Pf 3D7 IC50, Table 8
[10] = DD2, 72 h, read-out: Pf Dd2 IC50 (μM, 72 hr)

COc1ccc(C2(c3ccc(OC)cc3)NC(=N)N(CC3CCOCC3)C2=O)cc1 [Example 275, 2-imino-5,5-bis(4-methoxyphenyl)-3-(oxan-4-ylmethyl)imidazolidin-4-one]
IC50 [1, 5]: 0.571 µM
IC50 [1, 6]: 0.463 µM
IC50 [1, 7]: 0.521 µM
IC50 [1, 8]: 0.463 µM
IC50 [1, 9]: 0.463 µM
hPPB (%) [2]: 88.7%
IC50 [3, 10]: 0.442 µM
IC50 ([3]; DD2, read-out: Dd2 IC50 (μM)): 0.442 µM
IC50 ([4]; Table 8, read-out: PM-II IC50): 17 nM
IC50 ([4]; Table 13, read-out: PM-2 IC50): 16.9 nM

COc1ccc(C2(c3ccc(OC)cc3)NC(=N)N(C3CCOCC3)C2=O)cc1 [Example 176, 2-imino-5,5-bis(4-methoxyphenyl)-3-(oxan-4-yl)-imidazolidin-4-one]
IC50 [1, 5]: 0.404 µM
IC50 [1, 6]: 0.459 µM
IC50 [1, 7]: 0.459 µM
IC50 [1, 8]: 0.459 µM
IC50 [1, 9]: 0.453 µM
hPPB (%) [2]: 78.1%
IC50 [3, 10]: 0.526 µM
IC50 ([3]; DD2, read-out: Dd2 IC50 (μM)): 0.526 µM
IC50 ([4]; Table 8, read-out: PM-II IC50): 7 nM
IC50 ([4]; Table 13, read-out: PM-2 IC50): 6.81 nM

COc1ccc(C2(c3ccc(OC)cc3)NC(=N)N(C3CCN(C(=O)OC(C)(C)C)CC3)C2=O)cc1 [Example 206, tert-butyl 4-[2-imino-4,4-bis(4-methoxyphenyl)-5-oxoimidazolidin-1-yl]piperidine-1-carboxylate]
IC50 [1, 5]: 0.339 µM
IC50 [1, 6]: 0.383 µM
IC50 [1, 7]: 0.436 µM
IC50 [1, 8]: 0.436 µM
IC50 [1, 9]: 0.383 µM
hPPB (%) [2]: 99.7%
IC50 [3, 10]: 0.367 µM
IC50 ([4]; Table 8, read-out: PM-II IC50): 2 nM
IC50 ([4]; Table 13, read-out: PM-2 IC50): 2.76 nM
